The compounds below were run against GCN2 (Homo sapiens, UniProt Q9P2K8) (assay: GCN2 enzyme assay (TR-FRET Lanthascreen, phosphorylation of GFP-eIF2alpha)). Details: 10 μM ATP, 80 nM GFP-eIF2alpha, 30 nM GCN2, room temperature.
Type: biochemical
Excerpt: GCN2: Assay principle & conditions
This assay can quantificate the activity of the serin kinase GCN2 (general control non-derepressible-2).
This kinase is involved in the stress metabolism of cells. It is activated upon starvation (amino acid depletion). Its natural substrate is eIF2a (eukaryotic initiation factor 2 alpha subunit), a translation factor, which gets activated (phosphorylated) by GCN2 in case of an amino acid bottleneck in the cells. This in turn leads to a halt of the protein synthesis. Inhibition of GCN2 results in stopping this mechanism: The cell can not stop protein production upon “starvation” stress.
The assay is run in two steps: the enzymatic reaction and the detection step. In the first step GCN2 is incubated with 10 μM ATP and 80 nM of the GFP-labelled substrate eIF2alpha at room temperature.
The enzymatic reaction is stopped by addition of EDTA. The amount of phosphorylated eIF2alpha is determined by TR-FRET (Lanthascreen): A complex is formed consisting of antibody and GFP labelled phospho-eIF2a, which allows a FRET upon exitation at 340 nm.
The GCN2-activity is directly proportional to the ratio of fluorescence units at the emission wavelengthh 520 nm (phosphopeptide-sensitive wavelength=emission of GFP) to the units at 495 nm (reference wavelength=emission of Terbium-chelate).
Final Concentrations in the Enzymatic Reaction

Chain of GCN2 (Q9P2K8 whole entry, species assumed): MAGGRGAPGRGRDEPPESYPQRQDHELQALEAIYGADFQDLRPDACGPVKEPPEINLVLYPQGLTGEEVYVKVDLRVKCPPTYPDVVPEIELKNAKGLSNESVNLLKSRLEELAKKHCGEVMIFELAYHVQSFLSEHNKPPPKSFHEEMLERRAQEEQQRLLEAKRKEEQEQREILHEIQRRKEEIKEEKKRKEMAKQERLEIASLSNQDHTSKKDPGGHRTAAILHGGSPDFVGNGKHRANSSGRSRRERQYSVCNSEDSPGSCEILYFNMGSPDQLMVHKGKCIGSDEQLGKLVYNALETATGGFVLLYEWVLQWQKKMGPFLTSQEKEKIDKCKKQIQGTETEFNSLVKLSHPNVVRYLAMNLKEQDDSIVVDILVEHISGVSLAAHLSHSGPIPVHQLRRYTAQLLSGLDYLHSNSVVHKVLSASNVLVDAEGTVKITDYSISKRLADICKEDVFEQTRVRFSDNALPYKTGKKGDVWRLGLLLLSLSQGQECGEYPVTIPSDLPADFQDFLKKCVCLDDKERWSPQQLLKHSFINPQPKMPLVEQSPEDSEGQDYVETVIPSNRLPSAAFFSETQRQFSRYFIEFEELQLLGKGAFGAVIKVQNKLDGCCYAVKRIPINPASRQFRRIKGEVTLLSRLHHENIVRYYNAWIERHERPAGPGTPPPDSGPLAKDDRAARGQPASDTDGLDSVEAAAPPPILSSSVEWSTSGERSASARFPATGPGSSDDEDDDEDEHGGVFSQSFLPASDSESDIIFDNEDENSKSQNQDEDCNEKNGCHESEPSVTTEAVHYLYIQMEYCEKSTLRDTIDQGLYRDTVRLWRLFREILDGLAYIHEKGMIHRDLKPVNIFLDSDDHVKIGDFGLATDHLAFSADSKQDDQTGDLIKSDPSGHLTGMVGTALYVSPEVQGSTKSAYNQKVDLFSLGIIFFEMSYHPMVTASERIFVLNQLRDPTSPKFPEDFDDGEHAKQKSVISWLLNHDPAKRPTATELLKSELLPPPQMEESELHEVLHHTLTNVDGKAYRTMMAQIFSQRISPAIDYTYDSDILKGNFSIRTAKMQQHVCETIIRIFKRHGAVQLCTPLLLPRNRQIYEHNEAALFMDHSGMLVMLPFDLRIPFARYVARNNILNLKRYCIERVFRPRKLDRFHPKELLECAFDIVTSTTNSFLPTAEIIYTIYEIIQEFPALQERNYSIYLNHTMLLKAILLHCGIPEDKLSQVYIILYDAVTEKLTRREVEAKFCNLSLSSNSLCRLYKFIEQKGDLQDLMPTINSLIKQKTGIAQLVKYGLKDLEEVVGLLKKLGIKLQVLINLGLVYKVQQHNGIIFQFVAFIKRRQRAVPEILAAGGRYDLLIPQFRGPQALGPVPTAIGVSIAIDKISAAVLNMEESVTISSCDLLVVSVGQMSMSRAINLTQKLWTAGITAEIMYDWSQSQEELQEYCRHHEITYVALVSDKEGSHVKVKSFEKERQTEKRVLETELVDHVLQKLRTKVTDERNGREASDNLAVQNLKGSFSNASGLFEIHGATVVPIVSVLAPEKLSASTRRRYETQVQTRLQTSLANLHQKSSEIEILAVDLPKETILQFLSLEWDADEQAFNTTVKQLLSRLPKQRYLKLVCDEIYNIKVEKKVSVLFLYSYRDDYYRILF

Row | IC50 [nM] | SMILES
1 | 300 to 3000 | CN1CCC(n2cc(Nc3ncc4nnn(-c5ccc(F)cc5C#N)c4n3)cn2)CC1 [Compound A74, 5-fluoro-2-{5-[1-(1-methyl-piperidin-4-yl)-1H-pyrazol-4-ylamino]-[1,2,3]triazolo[4,5-d]pyrimidin-3-yl}-benzonitrile]
2 | < 300 | COc1cc(-n2nnc3cnc(Nc4cnn(C5CCOCC5)c4)nc32)ccn1 [Compound A78, [3-(2-methoxy-pyridin-4-yl)-3H-[1,2,3]triazolo[4,5-d]pyrimidin-5-yl]-[1-(tetrahydro-pyran-4-yl)-1H-pyrazol-4-yl]-amine]
3 | < 300 | c1cnc2cc(-n3nnc4cnc(Nc5cnn(C6CCOCC6)c5)nc43)ccc2c1 [Compound A86, (3-quinolin-7-yl-3H-[1,2,3]triazolo[4,5-d]pyrimidin-5-yl)-[1-(tetrahydro-pyran-4-yl)-1H-pyrazol-4-yl]-amine]
4 | < 300 | CCOc1ccc(-n2nnc3cnc(Nc4cnn(CCC(C)C)c4)nc32)cc1 [Compound A88, [3-(4-ethoxy-phenyl)-3H-[1,2,3]triazolo[4,5-d]pyrimidin-5-yl]-[1-(3-methyl-butyl)-1H-pyrazol-4-yl]-amine]
5 | < 300 | CCn1cc(-n2nnc3cnc(Nc4cnn(CCC(C)C)c4)nc32)cn1 [Compound A89, [3-(1-ethyl-1H-pyrazol-4-yl)-3H-[1,2,3]triazolo[4,5-d]pyrimidin-5-yl]-[1-(3-methyl-butyl)-1H-pyrazol-4-yl]-amine]
6 | < 300 | CC(C)CCn1cc(Nc2ncc3nnn(-c4ccc5ncccc5c4)c3n2)cn1 [Compound A90, [1-(3-methyl-butyl)-1H-pyrazol-4-yl]-(3-quinolin-6-yl-3H-[1,2,3]triazolo[4,5-d]pyrimidin-5-yl)-amine]
7 | < 300 | c1cnc2cc(-n3nnc4cnc(Nc5cnn(C6CCOCC6)c5)nc43)ccc2n1 [Compound A94, (3-quinoxalin-6-yl-3H-[1,2,3]triazolo[4,5-d]pyrimidin-5-yl)-[1-(tetrahydro-pyran-4-yl)-1H-pyrazol-4-yl]-amine]
8 | 300 to 3000 | O[C@H]1CC[C@@H](n2cc(Nc3ncc4nnn(-c5ccc(Cl)c(F)c5)c4n3)cn2)CC1 [Compound A102, 4-{4-[3-(4-chloro-3-fluoro-phenyl)-3H-[1,2,3]triazolo[4,5-d]pyrimidin-5-ylamino]-pyrazol-1-yl}-cyclohexanol]
9 | < 300 | O[C@H]1CC[C@@H](n2cc(Nc3ncc4nnn(-c5ccc6nccnc6c5)c4n3)cn2)CC1 [Compound A105, 4-[4-(3-quinoxalin-6-yl-3H-[1,2,3]triazolo[4,5-d]pyrimidin-5-ylamino)-pyrazol-1-yl]-cyclohexanol]
10 | 300 to 3000 | COc1ccc(-n2nnc3cnc(Nc4cnn([C@H]5CC[C@H](O)CC5)c4)nc32)cn1 [Compound A109, 4-{4-[3-(6-methoxy-pyridin-3-yl)-3H-[1,2,3]triazolo[4,5-d]pyrimidin-5-ylamino]-pyrazol-1-yl}-cyclohexanol]
11 | 300 to 3000 | Fc1ccc(-n2nnc3cnc(Nc4cnn(C5CCOCC5)c4)nc32)cc1Cl [Compound A110, [3-(3-chloro-4-fluoro-phenyl)-3H-[1,2,3]triazolo[4,5-d]pyrimidin-5-yl]-[1-(tetrahydro-pyran-4-yl)-1H-pyrazol-4-yl]-amine]
12 | 300 to 3000 | c1cnc2cc(-n3nnc4cnc(Nc5cnn(C6COC6)c5)nc43)ccc2c1 [Compound A112, (1-oxetan-3-yl-1H-pyrazol-4-yl)-(3-quinolin-7-yl-3H-[1,2,3]triazolo[4,5-d]pyrimidin-5-yl)-amine]
13 | < 300 | COC(=O)c1ccc(-n2nnc3cnc(Nc4cnn(C5CCOCC5)c4)nc32)cc1 [Compound A113, 4-{5-[1-(tetrahydro-pyran-4-yl)-1H-pyrazol-4-ylamino]-[1,2,3]triazolo[4,5-d]pyrimidin-3-yl}-benzoic acid methyl ester]
14 | 300 to 3000 | Fc1cc(-n2nnc3cnc(Nc4cnn(CCN5CCOCC5)c4)nc32)ccc1Cl [Compound A114, [3-(4-chloro-3-fluoro-phenyl)-3H-[1,2,3]triazolo[4,5-d]pyrimidin-5-yl]-[1-(2-morpholin-4-yl-ethyl)-1H-pyrazol-4-yl]-amine]
15 | 300 to 3000 | Fc1ccc(-n2nnc3cnc(Nc4cnn(C5CCOCC5)c4)nc32)cc1F [Compound A116, [3-(3,4-difluoro-phenyl)-3H-[1,2,3]triazolo[4,5-d]pyrimidin-5-yl]-[1-(tetrahydro-pyran-4-yl)-1H-pyrazol-4-yl]-amine]
16 | < 300 | Fc1cccc(-n2nnc3cnc(Nc4cnn(CCCC5CCNCC5)c4)nc32)c1 [Compound A129, [3-(3-fluoro-phenyl)-3H-[1,2,3]triazolo[4,5-d]pyrimidin-5-yl]-[1-(3-piperidin-4-yl-propyl)-1H-pyrazol-4-yl]-amine]

Row | IC50 [nM] | SMILES
17 | < 300 | O=S(=O)(c1ccc(-n2nnc3cnc(Nc4cnn(CCn5cccn5)c4)nc32)cc1)N1CCCC1 [Compound A133, [1-(2-pyrazol-1-yl-ethyl)-1H-pyrazol-4-yl]-{3-[4-(pyrrolidine-1-sulfonyl)-phenyl]-3H-[1,2,3]triazolo[4,5-d]-pyrimidin-5-yl}-amine]
18 | 300 to 3000 | c1cnc2cc(-n3nnc4cnc(Nc5cnn(CCn6cccn6)c5)nc43)ccc2c1 [Compound A134, [1-(2-pyrazol-1-yl-ethyl)-1H-pyrazol-4-yl]-(3-quinolin-7-yl-3H-[1,2,3]triazolo[4,5-d]pyrimidin-5-yl)-amine]
19 | < 300 | NS(=O)(=O)c1ccc(-n2nnc3cnc(Nc4cnn(CCn5cccn5)c4)nc32)cc1 [Compound A135, 4-{5-[1-(2-pyrazol-1-yl-ethyl)-1H-pyrazol-4-ylamino]-[1,2,3]triazolo[4,5-d]pyrimidin-3-yl)-benzenesulfonamide]
20 | 300 to 3000 | CN1CCC(n2cc(Nc3ncc4nnn(-c5ccc(S(=O)(=O)N6CCCC6)cc5)c4n3)cn2)CC1 [Compound A136, [1-(1-methyl-piperidin-4-yl)-1H-pyrazol-4-yl]-{3-[4-(pyrrolidine-1-sulfonyl)-phenyl]-3H-[1,2,3]triazolo[4,5-d]pyrimidin-5-yl}-amine]
21 | 300 to 3000 | COc1ccc(-n2nnc3cnc(Nc4cnn([C@H]5CC[C@@H](O)CC5)c4)nc32)cn1 [Compound A137, 4-{4-[3-(6-methoxy-pyridin-3-yl)-3H-[1,2,3]triazolo[4,5-d]pyrimidin-5-ylamino]-pyrazol-1-yl}-cyclohexanol]
22 | < 300 | COc1ccc(-n2nnc3cnc(Nc4cnn(N5CCOCC5=O)c4)nc32)cc1 [Compound A138, 4-{4-[3-(4-methoxy-phenyl)-3H-[1,2,3]triazolo[4,5-d]pyrimidin-5-ylamino]-pyrazol-1-yl}-morpholin-3-one]
23 | 300 to 3000 | CN1CCC(n2cc(Nc3ncc4nnn(-c5ccn(C)n5)c4n3)cn2)CC1 [Compound A139, [1-(1-methyl-piperidin-4-yl)-1H-pyrazol-4-yl]-[3-(1-methyl-1H-pyrazol-3-yl)-3H-[1,2,3]triazolo[4,5-d]pyrimidin-5-yl]-amine]
24 | 300 to 3000 | CCOc1ccc(-n2nnc3cnc(Nc4cc(-c5cnn(C)c5C)n[nH]4)nc32)cc1 [Compound A140, (1′,5′-dimethyl-1H,1′H-[3,4′]bipyrazolyl-5-yl)-[3-(4-ethoxy-phenyl)-3H-[1,2,3]triazolo[4,5-d]pyrimidin-5-yl]-amine]
25 | < 300 | COc1ccc(-n2nnc3cnc(Nc4cnn([C@H]5CC[C@@H](O)CC5)c4)nc32)nc1 [Compound A141, 4-{4-[3-(5-methoxy-pyridin-2-yl)-3H-[1,2,3]triazolo[4,5-d]pyrimidin-5-ylamino]-pyrazol-1-yl}-cyclohexanol]
26 | < 300 | CN1CCC(n2cc(Nc3ncc4nnn(-c5ccc(S(N)(=O)=O)cc5)c4n3)cn2)CC1 [Compound A142, 4-{5-[1-(1-methyl-piperidin-4-yl)-1H-pyrazol-4-ylamino]-[1,2,3]triazolo[4,5-d]pyrimidin-3-yl}-benzenesulfonamide]
27 | < 300 | COc1ccc(-n2nnc3cnc(Nc4cnn([C@H]5CC[C@H](O)CC5)c4)nc32)nc1 [Compound A143, 4-{4-[3-(5-methoxy-pyridin-2-yl)-3H-[1,2,3]triazolo[4,5-d]pyrimidin-5-ylamino]-pyrazol-1-yl}-cyclohexanol]
28 | < 300 | CC(C)(F)c1ccc(-n2nnc3cnc(Nc4cnn(C5CCOCC5)c4)nc32)cc1 [Compound A144, {3-[4-(1-fluoro-1-methyl-ethyl)-phenyl]-3H-[1,2,3]triazolo[4,5-d]pyrimidin-5-yl}-[1-(tetrahydro-pyran-4-yl)-1H-pyrazol-4-yl]-amine]
29 | 300 to 3000 | O=C1COCCN1n1cc(Nc2ncc3nnn(-c4ccc5cccnc5c4)c3n2)cn1 [Compound A145, 4-[4-(3-quinolin-7-yl-3H-[1,2,3]triazolo[4,5-d]pyrimidin-5-ylamino)-pyrazol-1-yl]-morpholin-3-one]
30 | 300 to 3000 | Cn1ccc(-n2nnc3cnc(Nc4cnn(C5CCOCC5)c4)nc32)n1 [Compound A147, [3-(1-methyl-1H-pyrazol-3-yl)-3H-[1,2,3]triazolo[4,5-d]pyrimidin-5-yl]-[1-(tetrahydro-pyran-4-yl)-1H-pyrazol-4-yl]-amine]
31 | 300 to 3000 | CCn1cc(Nc2ncc3nnn(-c4ccc(C(C)(C)N)cc4)c3n2)cn1 [Compound A148, {3-[4-(1-amino-1-methyl-ethyl)-phenyl]-3H-[1,2,3]triazolo[4,5-d]pyrimidin-5-yl}-(1-ethyl-1H-pyrazol-4-yl)-amine]

Source: patent US9409914B2, “Triazolo[4,5-d]pyrimidine derivatives” (Merck Patent GmbH, priority 2012, dated 2016)
